Tested on: ringworm infection
Assay: Treatment of ringworm infections on the skin of volunteer patients
Format: in vivo, human
Conditions: twin teenage boys; prescribed oral treatment
Procedure: The effectiveness of Composition A in treating fungal infections on the skin was determined on volunteer patients. In a first case, twin teenage boys were experiencing ringworm infections on the face, scalp, and neck. […] For […], the ringworm sores on […] face were treated by directly applying Composition A to the sores.
The other teenage child was treated with a 100% solution of Composition A by dabbing it on the sores of their scalp and neck using a cotton swab twice a day over the course of 3 days. Various sores were treated over the next four to seven days with a diluted solution of Composition A. In particular, a few drops of Composition A were diluted with 10 drops of water, and the diluted solution was applied to the sores. […] Thereafter, a 1:100 solution of Composition A in water was used as a preventative treatment on the scalp prior to showering to avoid new ringworm infections.
Thus, in a second test case, Composition A was used to treat a ringworm infection on the neck and shoulder region of a teenage child. Composition A was formulated with an aloe vera clear cream at a 2% w/v.
In a third case, a middle-aged person was experiencing a significant ringworm infection on one foot. The ringworm infection was treated with Composition A in an aloe vera clear cream at 2% w/v.

OC(Cn1cncn1)(Cn1cncn1)c1ccc(F)cc1F [oral fluconazole, fluconazole]
ringworm infections on face, scalp and neck: ineffective at completely eradicating the ringworm infection
